Key:
CYP3A4 = CYP3A4 (Homo sapiens, UniProt P08684); assay: In vitro CYP metabolism; format: in vitro ADME
[1] = Effect of food on oral absorption; format: in vivo, human; conditions: for mean AUC0-24 with food compared to fasted state / mean Cmax with food compared to fasted state: 150 mg multiple doses, middle-aged and elderly females
[2] = tested on: patients with overactive bladder; assay: Phase 2 safety data, adverse events (main study and 52-week extension)
Source text: A placebo group was included in the main study, and a group that received tolterodine monotherapy was included in the main study and in the extension.

patients with OAB = assay: Phase 2b cardiovascular safety: orthostatic AEs, HR and BP changes; format: in vivo, human; conditions: for DBP change from baseline ≥5 mm Hg, subjects / DBP change from baseline ≥10 bpm, subjects / DBP change from baseline ≥15 bpm, subjects / HR change from baseline ≥5 bpm, subjects / HR change from baseline ≥10 bpm, subjects / HR change from baseline ≥15 bpm, subjects / SBP change from baseline ≥5 mm Hg, subjects / SBP change from baseline ≥10 bpm, subjects / SBP change from baseline ≥15 bpm, subjects: 3 consecutive post-baseline visits
Source text: None led to discontinuation. The overall incidence of orthostatic symptoms was low.
Small differences in the percent of subjects exceeding categorical heart rate and blood pressure thresholds for vibegron were similar to those in the tolterodine arm.

[3] = human, in vivo
[4] = PK in patients with moderate hepatic impairment; conditions: single dose 100 mg
[5] = 50 mg with high-fat meal, non-Japanese young males
[6] = 50 mg with standard Japanese breakfast, Japanese young males
[7] = 150 mg multiple doses with food, middle-aged females, Day 14
[8] = multiple dose 150 mg, day 14, non-Japanese middle-aged females, fasted
[9] = healthy matched control subjects

Sequence of CYP3A4 (P08684 whole entry): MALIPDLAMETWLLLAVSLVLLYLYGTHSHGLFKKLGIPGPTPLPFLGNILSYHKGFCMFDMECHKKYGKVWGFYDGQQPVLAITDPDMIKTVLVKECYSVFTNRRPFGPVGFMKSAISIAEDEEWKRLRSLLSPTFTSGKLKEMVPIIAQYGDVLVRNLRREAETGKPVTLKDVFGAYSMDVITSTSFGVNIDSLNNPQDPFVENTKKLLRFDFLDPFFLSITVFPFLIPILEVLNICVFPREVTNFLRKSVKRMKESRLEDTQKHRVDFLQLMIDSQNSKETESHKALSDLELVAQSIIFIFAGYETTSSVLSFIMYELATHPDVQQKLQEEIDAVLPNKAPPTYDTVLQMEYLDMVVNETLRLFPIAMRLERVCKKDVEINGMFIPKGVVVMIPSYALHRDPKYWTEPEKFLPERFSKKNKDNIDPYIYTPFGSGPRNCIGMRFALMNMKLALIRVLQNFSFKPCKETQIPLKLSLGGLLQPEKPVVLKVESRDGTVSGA

O=C(Nc1ccc(C[C@@H]2CC[C@H]([C@H](O)c3ccccc3)N2)cc1)[C@@H]1CCc2nccc(=O)n21 [Vibegron, (6S)—N-[4-[[(2S,5R)-5-[(R)-hydroxy(phenyl)methyl]pyrrolidin-2-yl]methyl]phenyl]-4-oxo-7,8-dihydro-6H-pyrrolo[1,2-a]pyrimidine-6-carboxamide]
CYP responsible for in vitro metabolism (CYP3A4): CYP3A4 is the predominant CYP responsible for in vitro metabolism
delay in Tmax vs fasted [1, 5]: ~1 h
reduction in AUC0-inf vs fasted [1, 5]: 46%
reduction in Cmax vs fasted [1, 5]: 67%
reduction in AUC0-inf vs fasted [1, 6]: 37%
reduction in Cmax vs fasted [1, 6]: 52%
reduction in mean AUC0-24 hr vs fasted [1, 7]: 20%
reduction in mean Cmax vs fasted [1, 7]: 47%
mean AUC0-24 with food compared to fasted state ([1]; Day 1): ~42%
mean Cmax with food compared to fasted state ([1]; Day 1): 59%
mean AUC0-24 with food compared to fasted state ([1]; Day 14): ~20%
mean Cmax with food compared to fasted state ([1]; Day 14): 43%
AUC0-24 [1, 8]: 3180 ± 925 ng·h/mL
Cmax [1, 8]: 346 ± 139 ng/mL
Ctrough [1, 8]: 62.7 ± 12.4 ng/mL
Accidental overdose, % subjects ([2]; 3 mg, first 12 weeks): (2.1) %
Accidental overdose, n subjects ([2]; 3 mg, first 12 weeks): 3
Accidental overdose, % subjects ([2]; 15 mg, first 12 weeks): (4.5) %
Accidental overdose, n subjects ([2]; 15 mg, first 12 weeks): 6
Accidental overdose, % subjects ([2]; 50 mg, first 12 weeks): (2.7) %
Accidental overdose, n subjects ([2]; 50 mg, first 12 weeks): 4
Accidental overdose, % subjects ([2]; 100 mg, first 12 weeks): (4.2) %
Accidental overdose, n subjects ([2]; 100 mg, first 12 weeks): 11
≥1 AE, n subjects ([2]; 100 mg, first 12 weeks): 107
frequency of injuries ([2]; human, in vivo): 0.9%
increased exposure (potential risk) ([2]; human, in vivo): ~2 fold
SBP and DBP mean changes at Week 1 and mean maximum changes over 8 weeks, difference between placebo and vibegron (patients with OAB; 50 mg and 100 mg): < 1 mm Hg
HR mean maximum changes over 8 weeks, comparable to placebo (patients with OAB; all doses): < 2 bpm
DBP change from baseline, mean (week 1) (patients with OAB; vibegron 3 mg): −0.37 mm Hg
DBP change from baseline, mean maximum (week 1 to 8) (patients with OAB; vibegron 3 mg): 5.03 mm Hg
HR change from baseline, mean (week 1) (patients with OAB; vibegron 3 mg): 0.36 bpm
HR change from baseline, mean maximum (week 1 to 8) (patients with OAB; vibegron 3 mg): 5.57 bpm
SBP change from baseline, mean (week 1) (patients with OAB; vibegron 3 mg): −0.35 mm Hg
SBP change from baseline, mean maximum (week 1 to 8) (patients with OAB; vibegron 3 mg): 7.14 mm Hg
DBP change from baseline ≥5 mm Hg, subjects (patients with OAB; vibegron 3 mg): (10.0) %
DBP change from baseline ≥10 bpm, subjects (patients with OAB; vibegron 3 mg): (2.1) %
DBP change from baseline ≥15 bpm, subjects (patients with OAB; vibegron 3 mg): (0.7) %
HR change from baseline ≥5 bpm, subjects (patients with OAB; vibegron 3 mg): (11.4) %
HR change from baseline ≥10 bpm, subjects (patients with OAB; vibegron 3 mg): (3.6) %
HR change from baseline ≥15 bpm, subjects (patients with OAB; vibegron 3 mg): (0.7) %
SBP change from baseline ≥5 mm Hg, subjects (patients with OAB; vibegron 3 mg): (15.0) %
SBP change from baseline ≥10 bpm, subjects (patients with OAB; vibegron 3 mg): (7.1) %
SBP change from baseline ≥15 bpm, subjects (patients with OAB; vibegron 3 mg): (2.9) %
DBP change from baseline, mean (week 1) (patients with OAB; vibegron 15 mg): 0.03 mm Hg
DBP change from baseline, mean maximum (week 1 to 8) (patients with OAB; vibegron 15 mg): 6.37 mm Hg
HR change from baseline, mean (week 1) (patients with OAB; vibegron 15 mg): 0.35 bpm
HR change from baseline, mean maximum (week 1 to 8) (patients with OAB; vibegron 15 mg): 6.56 bpm
SBP change from baseline, mean (week 1) (patients with OAB; vibegron 15 mg): −0.34 mm Hg
SBP change from baseline, mean maximum (week 1 to 8) (patients with OAB; vibegron 15 mg): 8.93 mm Hg
subjects with orthostatic related AEs (patients with OAB; vibegron 15 mg group): 0.3%
DBP change from baseline ≥5 mm Hg, subjects (patients with OAB; vibegron 15 mg): (11.4) %
DBP change from baseline ≥10 bpm, subjects (patients with OAB; vibegron 15 mg): (2.3) %
DBP change from baseline ≥15 bpm, subjects (patients with OAB; vibegron 15 mg): (0.8) %
HR change from baseline ≥5 bpm, subjects (patients with OAB; vibegron 15 mg): (12.9) %
HR change from baseline ≥10 bpm, subjects (patients with OAB; vibegron 15 mg): (3.0) %
HR change from baseline ≥15 bpm, subjects (patients with OAB; vibegron 15 mg): (0.8) %
SBP change from baseline ≥5 mm Hg, subjects (patients with OAB; vibegron 15 mg): (16.7) %
SBP change from baseline ≥10 bpm, subjects (patients with OAB; vibegron 15 mg): (6.8) %
SBP change from baseline ≥15 bpm, subjects (patients with OAB; vibegron 15 mg): (0.8) %
DBP change from baseline, mean (week 1) (patients with OAB; vibegron 50 mg): −0.70 mm Hg
DBP change from baseline, mean maximum (week 1 to 8) (patients with OAB; vibegron 50 mg): 4.19 mm Hg
HR change from baseline, mean (week 1) (patients with OAB; vibegron 50 mg): 0.29 bpm
HR change from baseline, mean maximum (week 1 to 8) (patients with OAB; vibegron 50 mg): 5.49 bpm
SBP change from baseline, mean (week 1) (patients with OAB; vibegron 50 mg): −0.79 mm Hg
SBP change from baseline, mean maximum (week 1 to 8) (patients with OAB; vibegron 50 mg): 7.01 mm Hg
subjects with orthostatic related AEs (patients with OAB; vibegron 50 mg+tolterodine ER/vibegron 50 mg treatment group): 0.8%
DBP change from baseline ≥5 mm Hg, subjects (patients with OAB; vibegron 50 mg): (7.6) %
DBP change from baseline ≥10 bpm, subjects (patients with OAB; vibegron 50 mg): (3.5) %
DBP change from baseline ≥15 bpm, subjects (patients with OAB; vibegron 50 mg): (0.7) %
HR change from baseline ≥5 bpm, subjects (patients with OAB; vibegron 50 mg): (8.3) %
HR change from baseline ≥10 bpm, subjects (patients with OAB; vibegron 50 mg): (2.8) %
HR change from baseline ≥15 bpm, subjects (patients with OAB; vibegron 50 mg): (0.7) %
SBP change from baseline ≥5 mm Hg, subjects (patients with OAB; vibegron 50 mg): (16.7) %
SBP change from baseline ≥10 bpm, subjects (patients with OAB; vibegron 50 mg): (9.7) %
SBP change from baseline ≥15 bpm, subjects (patients with OAB; vibegron 50 mg): (2.1) %
DBP change from baseline, mean (week 1) (patients with OAB; vibegron 100 mg): −0.69 mm Hg
DBP change from baseline, mean maximum (week 1 to 8) (patients with OAB; vibegron 100 mg): 4.80 mm Hg
HR change from baseline, mean (week 1) (patients with OAB; vibegron 100 mg): 0.35 bpm
HR change from baseline, mean maximum (week 1 to 8) (patients with OAB; vibegron 100 mg): 6.12 bpm
SBP change from baseline, mean (week 1) (patients with OAB; vibegron 100 mg): −0.77 mm Hg
SBP change from baseline, mean maximum (week 1 to 8) (patients with OAB; vibegron 100 mg): 6.51 mm Hg
subjects with orthostatic related AEs (patients with OAB; vibegron 100 mg group): 1.1%
DBP change from baseline ≥5 mm Hg, subjects (patients with OAB; vibegron 100 mg): (13.1) %
DBP change from baseline ≥10 bpm, subjects (patients with OAB; vibegron 100 mg): (3.4) %
HR change from baseline ≥5 bpm, subjects (patients with OAB; vibegron 100 mg): (11.8) %
HR change from baseline ≥10 bpm, subjects (patients with OAB; vibegron 100 mg): (3.0) %
HR change from baseline ≥15 bpm, subjects (patients with OAB; vibegron 100 mg): (0.4) %
SBP change from baseline ≥5 mm Hg, subjects (patients with OAB; vibegron 100 mg): (11.8) %
SBP change from baseline ≥10 bpm, subjects (patients with OAB; vibegron 100 mg): (4.2) %
SBP change from baseline ≥15 bpm, subjects (patients with OAB; vibegron 100 mg): (1.3) %
dose recovered in feces [3]: approximately 59%
dose recovered in urine [3]: ~20%
AUC0-inf, geometric least squares mean [4, 9]: 1440 ng·h/mL
CL/F, geometric mean (% geometric CV) [4, 9]: 68.3 (36.0%) L/hr
Cmax, geometric least squares mean [4, 9]: 125 ng/mL
AUC0-inf, geometric least squares mean ([4]; moderate hepatic impairment): 1820 ng·h/mL
Apparent terminal t1/2, geometric mean (% geometric CV) ([4]; moderate hepatic impairment): 94.5 (8.88%) hr
CL/F, geometric mean (% geometric CV) ([4]; moderate hepatic impairment): 56.0 (31.2%) L/hr
Cmax, geometric least squares mean ([4]; moderate hepatic impairment): 168 ng/mL

— patent US20230218624A1 (Urovant Sciences GmbH, priority 2017, published 2023)
